Earlier results, collected in US6629835B2, “Combinations of diterpene triepoxide lactones and ditepene lactones or triterpenes for synergistic inhibition of cyclooxygenase-2” (MetaProteomics, LLC, priority 2000, dated 2003).

Settings: gastrointestinal disturbance, nausea and vomiting, hypotension, edema; cited from earlier work

CC(C)[C@]12O[C@H]1[C@@H]1O[C@]13[C@]1(O[C@H]1C[C@H]1C4=C(CC[C@@]13C)C(=O)OC4)[C@@H]2O [Triptolide]
Patients showing some type of side effects: Approximately 28%
